Source: US10745395B2, “Compounds for their use as drugs for the treatment and/or the prevention of infection(s) caused by biofilm-forming bacteria” (CENTRE NATIONAL DE LA RECHERCHE SCIENTIFIQUE, priority 2014, dated 2020)

What was measured:
Format in all cases: cell-based, Pseudomonas aeruginosa
[1] = test system: P. aeruginosa strain PAR 50 biofilm; test: Reduction of biofilm growth (percent vs culture control)
From the text: (§1) FIG. 4C represents the effect of the tested compounds (1, 2, 3 and 4) on exopolysaccharide biosynthesis in the early stages and mature P. aeruginosa biofilm formation, strain PAR 50. The abscissa represents the time (in hours) in order to differentiate early biofilm and mature biofilm, and the ordinate represents the percentage of the biofilm reduction.
(§2) Early biofilm model: formation of early biofilm under influence of the tested substances was observed by filling wells of a 96-well plate with 20 μl of P. aeruginosa suspension and 180 μl of TSB, as described above. Tested iminosugars (compounds 1, 2, 3 and 4) were added immediately after setting-up the bacteria at a final concentration of 0.9 mM. Then, the plate was gently mixed and incubated for 48 hours at 37° C.
(§3) Mature biofilm model: the tested substances were added 48 hours after adherence of bacteria to the wells in a 96-well plate. The growth conditions of P. aeruginosa were exactly the same, as described above for the early biofilm model.
(§4) The effect of the tested compounds (1, 2, 3 and 4) on the reduction of biofilm growth has also been studied on the three P. aeruginosa strains PAR 5, PAR 20, PAR 50.
(§5) (Percent decrease in biofilm thickness was obtained as a mean value from 3 consecutive measurements of the Congo Red stained biofilm using spectrophotometer after addition of the tested iminosugars in comparison to control regarded as 100%).

[2] = test system: P. aeruginosa strain PAR 5 biofilm; test: as above
From the text: as §1, with “4A” for “4C”, “5.” for “50.”
as §2, §3, §4, §5

[3] = test system: P. aeruginosa strain PAR 20 biofilm; test: Mature biofilm model, Congo red staining; settings: for absorbance (Congo red, biofilm development): mature biofilm, compound added 48 h after induction of biofilm
Method: (§6) Biofilm quantity was determined using Congo red dye according to a modified procedure described by Allison et al. (Allison G C, Sutherland I W. A staining technique for bacteria and its correlation to extracellular carbohydrate production. J Microbiol Meth 2, 93-99 (1984)).
(§7) Briefly, at different time points (0, 6, 18, 24, 48 and 72 hours), the culture medium was gently removed from wells by using the pipette and immediately 200 μl of 0.1% Congo red solution was added. The plates were left for 30 minutes at room temperature and then 10 minutes before the end of staining, the plate was centrifuged for 10 minutes at 2000 rpm and then washed twice with buffered saline to remove unbound dye. Absorbance was measured at λ=492 nm wavelength using spectrophotometer (Awarness Technology Inc., Palm City, Fla., USA). All measurements were performed in triplicates and mean values±SD are given.
as §3
(§8) After the addition of iminosugars (compounds 1, 2, 3 and 4), the biofilm formation and the number of viable bacteria were checked in the following time intervals: 48, 48.5, 56, 72, 96 hours.

[4] = test system: P. aeruginosa strain PAR 50 biofilm; test: Mature biofilm model, Congo red staining; settings: for absorbance (Congo red, biofilm development): mature biofilm, compound added 48 h after induction of biofilm
Method: as §6, §7, §3, §8

[5] = test system: P. aeruginosa strain PAR 5 biofilm; test: Mature biofilm model, Congo red staining; settings: for absorbance (Congo red, biofilm development): mature biofilm, compound added 48 h after induction of biofilm
Method: as §6, §7, §3, §8

[6] = test system: P. aeruginosa strain PAR 20 biofilm; test: Reduction of biofilm growth (percent vs culture control)
From the text: as §1, with “4B” for “4C”, “20.” for “50.”
as §2, §3, §4, §5

[7] = test system: P. aeruginosa strain PAR 20; test: Number of viable bacteria in early and mature biofilm (viable count)
Method: (§9) Biofilm formation and the number of viable bacteria were checked in parallel in the following time intervals: 0, 0.5, 8, 24, 48 hours, in accordance with the procedure described above. Biofilm thickness was estimated by staining it with Cango Red and measuring optical density while number of viable bacteria was performed using the standard viable count method. (Allison G C, Sutherland I W. A staining technique for bacteria and its correlation to extracellular carbohydrate production. J Microbiol Meth 2, 93-99 (1984)).
as §8
(§10) Numbers of viable bacteria contained in the early and mature biofilm were estimated on separate plates with wells filled with tested P. aeruginosa strains as described above (PAR 5, PAR 20, PAR 50).
(§11) At the same time intervals, biofilm content in each well was removed and mixed by multiple pippeting and transferred to sterile tubes. Then decimal dilutions of the bacterial suspension were made in TSB broth, plated on McConkey Agar (Oxoid), and incubated at 37° C. for 24 hours.
(§12) Numbers of colonies grown on platter were counted and total numbers of the viable bacteria calculated as colony forming units (CFU) per ml.
(§13) The results depict logs of CFU/ml for three P. aeruginosa strains: PAR 5, PAR 20 and PAR 50 measured at different time intervals (0 hours, 8 hours, 24 hours, 48 hours, 56 hours, 72 hours and 96 hours). The detection limit is 100 CFU/ml.

[8] = test system: P. aeruginosa strain PAR 50; test: as above
Method: as §9, §8, §10, §11, §12, §13

[9] = test system: P. aeruginosa strain PAR 5; test: as above
Method: as §9, §8, §10, §11, §12, §13

[10] = test system: P. aeruginosa strain PAR 20 biofilm; test: Early biofilm model, Congo red staining; settings: for absorbance (Congo red, biofilm formation): early biofilm, 0.9 mM, 492 nm
Method: (§14) P. aeruginosa biofilm was set-up in sterile plastic 96-well plates with adherent surface (Greiner Bio-One, USA).
(§15) Twenty microliter quantities of the bacterial stock suspensions, prepared as described above, were added to each well followed with 180 μl of sterile TSB. Final concentration of the bacteria was 1×10^8 CFU/ml.
(§16) The plates were centrifuged for 10 minutes at 2000 rpm to sediment bacteria on the bottom of each well and then incubated for 72 hours (37° C., aerobic conditions).
as §6, §7, §2, §9
(§17) P. aeruginosa suspension cultures in TSB broth alone were used as a control.

[11] = test system: P. aeruginosa strain PAR 50 biofilm; test: Early biofilm model, Congo red staining; settings: for absorbance (Congo red, biofilm formation): early biofilm, 0.9 mM, 492 nm
Method: as §14, §15, §16, §6, §7, §2, §9, §17

[12] = test system: P. aeruginosa strain PAR 5 biofilm; test: Early biofilm model, Congo red staining; settings: for absorbance (Congo red, biofilm formation): 0.9 mM, 492 nm
Method: as §14, §15, §16, §6, §7, §2, §9, §17

[13] = in comparison with culture control

## COc1ccc(C[C@@H]2CCC[C@@H]3[C@H](O)[C@@H](O)[C@H](CO)N23)cc1 [Compound 3, (1S,2S,3S,5S,9R)-1,2-dihydroxy-3-hydroxymethyl-5-p-methoxybenzylindolizidine]
[1]; 8 hours of incubation
  reduction of biofilm growth: about 45%
[1]; 24 hours of incubation
  reduction of biofilm growth: about 45%
[1]; 48 hours of incubation
  reduction of biofilm growth: about 5%
[1]; 72 hours of incubation
  reduction of biofilm growth: about 20%
[1]; notably an early biofilm
  effect on biofilm growth: can reduce the biofilm growth
[2]; 8 hours of incubation
  reduction of biofilm growth: about 90%
[2]; 24 hours of incubation
  reduction of biofilm growth: about 90%
[2]; 48 hours of incubation
  reduction of biofilm growth: about 25%
[2]; 72 hours of incubation
  reduction of biofilm growth: about 10%
[2]; notably an early biofilm
  effect on biofilm growth: can reduce the biofilm growth
[3]
  influence on mature biofilm formation: weak influence
[3]; 48 hours
  absorbance (Congo red, biofilm development): about 0.6 a.u.
[3]; 56 hours
  absorbance (Congo red, biofilm development): about 1.1 a.u.
[3]; 72 hours
  absorbance (Congo red, biofilm development): about 0.75 a.u.
[3]; 96 hours
  absorbance (Congo red, biofilm development): about 1.5 a.u.
[4]
  influence on mature biofilm formation: weak influence
[4]; 48 hours
  absorbance (Congo red, biofilm development): about 1.25 a.u.
[4]; 56 hours
  absorbance (Congo red, biofilm development): about 1.0 a.u.
[4]; 72 hours
  absorbance (Congo red, biofilm development): about 2.0 a.u.
[4]; 96 hours
  absorbance (Congo red, biofilm development): about 2.5 a.u.
[5]
  influence on mature biofilm formation: weak influence
[5]; 48 hours
  absorbance (Congo red, biofilm development): about 0.75 a.u.
[5]; 56 hours
  absorbance (Congo red, biofilm development): about 1.25 a.u.
[5]; 72 hours
  absorbance (Congo red, biofilm development): about 1.25 a.u.
[5]; 96 hours
  absorbance (Congo red, biofilm development): about 1.25 a.u.
[6]; 8 hours of incubation
  reduction of biofilm growth: about 50%
[6]; 24 hours of incubation
  reduction of biofilm growth: about 60%
[6]; 48 hours of incubation
  reduction of biofilm growth: about 0%
[6]; 72 hours of incubation
  reduction of biofilm growth: about 20%
[6]; notably an early biofilm
  effect on biofilm growth: can reduce the biofilm growth
[7]; early biofilm, 0 h
  number of viable P. aeruginosa: 5 × 10^6 CFU/ml
[7]; early biofilm, 8 h
  number of viable P. aeruginosa: 3 × 10^7 CFU/ml
[7]; early biofilm, 24 h
  number of viable P. aeruginosa: 5 × 10^8 CFU/ml
[7]; early biofilm, 48 h
  number of viable P. aeruginosa: 3 × 10^9 CFU/ml
[7]; mature biofilm, 56 h
  number of viable P. aeruginosa: 3 × 10^8 CFU/ml
[7]; mature biofilm, 72 h
  number of viable P. aeruginosa: 7 × 10^7 CFU/ml
[7]; mature biofilm, 96 h
  number of viable P. aeruginosa: 7 × 10^7 CFU/ml
[8]; early biofilm, 0 h
  number of viable P. aeruginosa: 4 × 10^7 CFU/ml
[8]; early biofilm, 8 h
  number of viable P. aeruginosa: 1 × 10^8 CFU/ml
[8]; early biofilm, 24 h
  number of viable P. aeruginosa: 6 × 10^8 CFU/ml
[8]; early biofilm, 48 h
  number of viable P. aeruginosa: 6 × 10^8 CFU/ml
[8]; mature biofilm, 56 h
  number of viable P. aeruginosa: 4 × 10^8 CFU/ml
[8]; mature biofilm, 72 h
  number of viable P. aeruginosa: 5 × 10^9 CFU/ml
[8]; mature biofilm, 96 h
  number of viable P. aeruginosa: 8 × 10^9 CFU/ml
[9]; early biofilm, 0 h
  number of viable P. aeruginosa: 6 × 10^6 CFU/ml
[9]; early biofilm, 8 h
  number of viable P. aeruginosa: 4 × 10^7 CFU/ml
[9]; early biofilm, 24 h
  number of viable P. aeruginosa: 1 × 10^7 CFU/ml
[9]; early biofilm, 48 h
  number of viable P. aeruginosa: 2 × 10^6 CFU/ml
[9]; mature biofilm, 56 h
  number of viable P. aeruginosa: 3 × 10^8 CFU/ml
[9]; mature biofilm, 72 h
  number of viable P. aeruginosa: 2 × 10^8 CFU/ml
[9]; mature biofilm, 96 h
  number of viable P. aeruginosa: 1 × 10^9 CFU/ml
[10]; 8 hours
  absorbance (Congo red, biofilm formation): about 0.75 a.u.
[10]; 24 hours
  absorbance (Congo red, biofilm formation): about 0.7 a.u.
[10]; 48 hours
  absorbance (Congo red, biofilm formation): about 0.7 a.u.
[10]; [13]
  effect on formation of an early biofilm: inhibit the formation of an early biofilm
[11]; 8 hours
  absorbance (Congo red, biofilm formation): about 0.8 a.u.
[11]; 24 hours
  absorbance (Congo red, biofilm formation): about 0.25 a.u.
[11]; 48 hours
  absorbance (Congo red, biofilm formation): about 0.25 a.u.
[11]; [13]
  effect on formation of an early biofilm: inhibit the formation of an early biofilm
[12]; early biofilm
  biofilm formation at 8 hours, 24 hours and 48 hours: no biofilm formation
[12]; early biofilm, 8 hours
  absorbance (Congo red, biofilm formation): about 0.25 a.u.
[12]; early biofilm, 24 hours
  absorbance (Congo red, biofilm formation): about 0.25 a.u.
[12]; early biofilm, 48 hours
  absorbance (Congo red, biofilm formation): about 0.25 a.u.
[12]; [13]
  effect on formation of an early biofilm: inhibit the formation of an early biofilm
